Read-outs that look alike come from different tables or passages of the source.
What was measured:
[1] = Time lag between oral administration and maximal plasma levels, eletriptan in combination with sodium bicarbonate; format: in vivo; settings: administered in combination with sodium bicarbonate, in some cases
Description: The advantage to the patient arising from the correspondingly swift amelioration of symptoms is self-evident.

[2] = Tablet hardness relative to tablets made from a placebo blend; format: physicochemical; settings: eletriptan at 2.5% w/w of tablet
Protocol: A mixture of eletriptan hydrobromide (24.24 mg, equivalent to 20 mg of eletriptan free base), sodium bicarbonate (USP, 630 mg) and microcrystalline cellulose (Avicel PH 102, Ph. Eur., 137.76 mg) were blended for 10 minutes, passed through a […] screen and re-blended for a further 10 minutes. Screened intragranular magnesium stearate (Ph. Eur., 8 mg) was added and the mixture was lubricated for 5 minutes. […] The blend was made into a tablet by direct compression. The tablets so produced had excellent weight uniformity and friability.

[3] = α-polymorphic hydrobromide salt, oral, cited from earlier work
[4] = 30 mg eletriptan, fasted, cited from earlier work

time lag between oral administration and maximal plasma levels of drug [1]: 30 min | increase in tablet hardness [2]: 0.7 kp
Structure (SMILES): CN1CCC[C@@H]1Cc1c[nH]c2ccc(CCS(=O)(=O)c3ccccc3)cc12 [eletriptan, 3-{[1-methylpyrrolidin-2(R)-yl]methyl}-5-(2-phenylsulfonylethyl)-1H-indole]
Tmax (time between administering a standard tablet and maximal plasma concentrations) ([3]; fasted subjects): about 1 hour | Tmax (time between administering a standard tablet and maximal plasma concentrations) ([3]; fed subjects): up to 4 hours | Tmax ([4]; migraine-free patients): 1.3 ± 1.3 h | Tmax ([4]; patients with migraine): 2.8 ± 2.1 h
